Measurements from patent publication US10160867B2, “Benzoxaborole-containing coating resistant to cellulose-supportable fungus” (THE PENN STATE RESEARCH FOUNDATION, priority 2015, dated 2018).
≈ marks a conversion by molar mass, not a printed value.

Assays:
Format in all cases: cell-based
Stachybotrys chartarum [1] = assay: 3 day MIC, broth microdilution in 25% PDB; details: 72 h, 25% PDB, read-out: 3 day MIC
Method: (§1) Stock solutions (concentrations of between 4,000 μg/mL to 10,000 μg/mL; stored at −18° C.) of the above antifungals were prepared in dimethyl sulfoxide (DMSO). The stock solutions were further diluted into sterile 25% potato dextrose broth (PDB) so that the diluted solutions could be used for the antifungal susceptibility studies. This way, a typical microdilution study would reach a final ratio of about 0.5-2% v/v of DMSO in 25% PDB.
(§2) Spore inocula were prepared in sterile distilled water with 0.1% Tween® 20 (a polysorbate surfactant), and a hemocytometer was used to determine the spore density. Typically, the spore inoculum was prepared fresh prior to each study, and the inoculum was appropriately diluted to a final concentration of 0.4-1×10^5 spores/mL or colony-forming unit (CFU)/mL in each study. The spore suspension can be stored in a refrigerator at 4° C. for up to one week.
(§3) The studies were performed in flat bottom, 96-well microtiter plates (Greiner Bio-One, Frickenhausen, Germany).
(§4) Plates sealed with clear polyester film (VWR, Radnor, Pa.) were incubated at a temperature of about 25° C. The progress of fungal growth was monitored at 48 hours and 72 hours.

Alternaria alternata [2] = assay: 3 day MIC, broth microdilution in 25% PDB; details: 72 h, 25% PDB, read-out: 3 day MIC
Method: as §1, §2, §3, §4

Stachybotrys chartarum [3] = assay: Fungus resistance test after painting over fungal growth (defacement rating); details: for ability to inhibit Stachybotrys chartarum re-emergence on the surfaces: painting over contaminated surfaces, paints containing 100 μg/mL, after 7 days; for Average defacement rating ± standard deviation: painted over fungal growth, +100 μg/mL in Olympic Home paint
Text: (§5) In this series of experiments, fungal growth was allowed to cover a painted surface (surface containing 2 coats of the unaltered paint) to a defacement rating of 3-5, forming a ‘contaminated surface’. […] The paint application was extended approximately 1-2 cm beyond the edge of the disc onto the NSA medium. Each formulation used a separate brush to avoid cross contamination. The re-painted discs were placed back into the humid environment with elevated temperature to encourage fungal growth.
(§6) This test was used to evaluate the ability of paint films containing antifungal additives to prevent the re-emergence of fungal growth after painting over existing growth.
(§7) Olympic® Home interior flat latex paint (PPG Industries, Pittsburgh, Pa.) and Valspar® QuikHide White flat interior paint (Valspar Corporation, Minneapolis, Minn.) were used for the experiments in this study unless specified. Stock solutions of the antifungal additives of interest were prepared in reagent grade dimethyl sulfoxide (DMSO; Alfa Aesar, Ward Hill, Mass.). Additives were spiked (by adding appropriate amounts of the antifungal stock solutions) into the liquid paint at specified concentrations. Samples of additive-spiked paint were vigorously mixed with a vortex mixer for at least one minute to insure uniform dispersion of the additive in the paint. […] Studies that used other brands of paint followed the same protocol as described for those using the Olympic® Home interior flat latex paint.
(§8) Test surfaces were prepared in triplicate. In most cases, the tested conditions were repeated on a different date, again in triplicate. […] Two coats of paint were applied with a polyester brush to completely cover both faces of the filter paper disc, allowing at least four hours drying time between coats.
(§9) Nutrient-Salts Agar (NSA) media was prepared according to ASTM method G21-13 in 100×15 mm sterile polystyrene petri dishes (VWR® Radnor, Pa.) with a solidified agar layer from 3 to 6 mm (⅛ to ¼ in.) in depth. The agar was allowed to solidify for at least 24 hours before being used. The painted test filter paper discs were placed in the center of the agar plates in a biosafety hood while wearing clean nitrile gloves.
(§10) The paint coatings were evaluated against three representative fungi: Stachybotrys chartarum, Penicillium chrysogenum, and Alternaria alternata. […] Fungal isolates of Alternaria alternata and Penicillium chrysogenum were obtained from the Plant Pathology and Environmental Microbiology Department at Penn State University.
(§11) A spore suspension of each of these fungi was prepared by pouring a 20-mL portion of autoclaved deionized water containing 0.01% Tween® 20 onto a subculture of each fungal species. Spores were counted with the use of a hemocytometer (Hausser Scientific, Horsham, Pa.) under a microscope. Spore suspensions of Stachybotrys chartarum and Penicillium chrysogenum were diluted to 1×10^6 spores/mL with autoclaved deionized water. Spore suspensions of Alternaria alternata were used “as is” in the range of 200,000 to 400,000 spores/mL.
(§12) Painted test surfaces were inoculated with a spray bottle or with a cotton-tipped applicator. To inoculate the sample with a spray bottle, the spore suspension was sprayed twice on the painted test discs with a spray bottle that delivered approximately 0.14 g of fluid per spray. To inoculate the sample with a cotton-tipped applicator, an autoclaved cotton-tipped applicator was submerged in approximately 400 μL of the inoculum solution and applied evenly over the surface of the painted test surface twice.

Penicillium purpurogenum = assay: 3 day MIC, broth microdilution in 25% PDB; details: 72 h; Penicillium purpurogenum; 25% PDB; read-out: 3 day MIC
Method: as §1, §2, §3, §4

Penicillium chrysogenum [4] = assay: 3 day MIC, broth microdilution in 25% PDB; details: 72 h, 25% PDB, read-out: 3 day MIC
Method: as §1, §2, §3, §4

[5] = system: Penicillium brevicompactum; assay: 3 day MIC, broth microdilution in 25% PDB; details: 72 h, 25% PDB, read-out: 3 day MIC
Method: as §1, §2, §3, §4

Penicillium corylophilum = assay: 3 day MIC, broth microdilution in 25% PDB; details: 72 h, 25% PDB, read-out: 3 day MIC
Method: as §1, §2, §3, §4

Penicillium chrysogenum [6] = assay: Fungus resistance test for painted surfaces containing antifungal additives (defacement rating)
Method: (§13) A Defacement Rating is measured by estimating the percentage of surface defacement with 10 being no defacement and 0 begin completely defaced.
(§14) This test was used to evaluate the resistance of paint films containing antifungal additives to surface fungal growth.
(§15) Olympic® Home interior flat latex paint (PPG Industries, Pittsburgh, Pa.) and Valspar® QuikHide White flat interior paint (Valspar Corporation, Minneapolis, Minn.) were used for all studies unless otherwise noted. Stock solutions of the antifungal additives of interest were prepared in reagent grade dimethyl sulfoxide (DMSO; Alfa Aesar, Ward Hill, Mass.). Additives were spiked (by adding appropriate amounts of the antifungal stock solutions) into the liquid paint at specified concentrations. Samples of the additive-spiked paint were vigorously mixed with a vortex mixer for at least one minute to ensure uniform dispersion of the additive in the paint. […] Studies that use other brands of paint followed the same protocol as described for those using the Olympic® Home interior flat latex paint and Valspar® QuikHide paint.
as §8
(§16) Nutrient-Salts Agar (NSA) medium was prepared according to ASTM method G21-13 in 100×15 mm sterile polystyrene petri dishes (VWR® Radnor, Pa.) with a solidified agar layer of about 3 to about 6 mm (⅛ to ¼ in.) in depth. The agar was allowed to solidify for at least 24 hours before being used. The painted test filter paper discs were placed in the center of the agar plates in a biosafety hood while wearing clean nitrile gloves.
(§17) The paint coatings were evaluated against three representative cellulose-supportable fungi: Stachybotrys chartarum, Penicillium chrysogenum, and Alternaria alternata. […] Fungal isolates of Alternaria alternata and Penicillium chrysogenum were obtained from the Plant Pathology and Environmental Microbiology Department at Penn State University.
(§18) A spore suspension of each of these fungi was prepared by pouring a 20-mL portion of autoclaved deionized water containing 0.01% Tween® 20 onto a subculture of each fungal species. Spores were counted with the use of a hemocytometer (Hausser Scientific, Horsham, Pa.) under a compound light microscope. Spore suspensions of Stachybotrys chartarum and Penicillium chrysogenum were diluted to 1×10^6 spores/mL with autoclaved deionized water. Spore suspensions of Alternaria alternata were used “as is” in the range of 200,000 to 400,000 spores/mL.
(§19) Painted test surfaces were inoculated with a spray bottle or with a sterile cotton-tipped applicator. To inoculate the sample with a spray bottle, the spore suspension was sprayed twice on the painted test discs with an autoclaved spray bottle that delivered approximately 0.14 g of fluid per spray. To inoculate the sample with a cotton-tipped applicator, an autoclaved cotton-tipped applicator was submerged in approximately 400 μL of the spore inoculum solution (spore concentrations described above) and applied evenly over the surface of the painted test surface twice. A fresh autoclaved cotton-tipped applicator was used for the application of each painted disc. All the paint studies with Alternaria alternata and Stachybotrys chartarum were inoculated using the spray bottle method. For studies with Penicillium chrysogenum using Olympic® Home paint, the spray bottle inoculation method was used. For studies with Penicillium chrysogenum using Valspar® QuikHide paint, the cotton-tipped applicator inoculation method was used.
(§20) After inoculation, the NSA agar plates were sealed with Parafilm®.

Stachybotrys chartarum [7] = assay: as above; details: +100 μg/mL in Olympic Home paint
Method: as §13, §14, §15, §8, §16, §17, §18, §19, §20

Alternaria alternata [8] = assay: as above; details: +100 μg/mL in Olympic Home paint
Method: as §13, §14, §15, §8, §16, §17, §18, §19, §20

Penicillium chrysogenum [9] = assay: Fungus resistance test after painting over fungal growth (defacement rating); details: painted over fungal growth, +200 μg/mL in Valspar QuikHide paint
Text: as §5, §6, §7, §8, §9, §10, §11, §12

Alternaria alternata [10] = assay: as above; details: painted over fungal growth, +100 μg/mL in Olympic Home paint
Text: as §5, §6, §7, §8, §9, §10, §11, §12

With `Nc1ccc2c(c1)B(O)OCC2` [Compound B7, 7-amino-3,4-dihydro-1H-2,1-benzoxaborinin-1-ol] the MIC (Stachybotrys chartarum [1]) was 25 µg/mL (≈ 153 µM), the MIC (Alternaria alternata [2]) was greater than 200 µg/mL and the “ability to inhibit Stachybotrys chartarum re-emergence on the surfaces” value (Stachybotrys chartarum [3]) was “very little ability to inhibit”.
In the case of `OB1OCCc2cc(F)ccc21` [Compound B5, 6-fluoro-3,4-dihydro-1H-2,1-benzoxaborinin-1-ol], the MIC (Stachybotrys chartarum [1]) is reported as 6.3 µg/mL (≈ 38 µM), the MIC (Alternaria alternata [2]) is reported as 200 µg/mL (≈ 1210 µM) and the “ability to inhibit Stachybotrys chartarum re-emergence on the surfaces” value (Stachybotrys chartarum [3]) is reported as “very little ability to inhibit”.
Compound `O=C(O)c1ccc2c(c1)COB2O` [Compound B10, 1-hydroxy-1,3-dihydro-2,1-benzoxaborole-5-carboxylic acid] has an MIC (Penicillium purpurogenum) greater than 200 µg/mL, an MIC (Penicillium chrysogenum [4]) greater than 200 µg/mL and an MIC [5] greater than 200 µg/mL. For the same compound, the MIC (Penicillium corylophilum) was greater than 200 µg/mL, the MIC (Stachybotrys chartarum [1]) was 100 µg/mL (≈ 562 µM) and the MIC (Alternaria alternata [2]) was 200 µg/mL (≈ 1120 µM).
With `OB1OCc2ccccc21` [Compound B0, 2-(hydroxymethyl)-benzene boronic acid hemiester] the “Average defacement rating ± standard deviation” value (Penicillium chrysogenum [6]; +100 μg/mL in Olympic Home paint, 7 days) was 2.7 ± 0.8, the “Average defacement rating ± standard deviation” value (Penicillium chrysogenum [6]; +100 μg/mL in Olympic Home paint, 14 days) was 0.0 ± 0.0 and the “Average defacement rating ± standard deviation” value (Penicillium chrysogenum [6]; +100 μg/mL in Olympic Home paint, 21 days) was 0.0 ± 0.0. For the same compound, the “Average defacement rating ± standard deviation” value (Penicillium chrysogenum [6]; +200 μg/mL in Olympic Home paint, 7 days) was 10.0 ± 0.0, the “Average defacement rating ± standard deviation” value (Penicillium chrysogenum [6]; +200 μg/mL in Olympic Home paint, 14 days) was 6.8 ± 4.0 and the “Average defacement rating ± standard deviation” value (Penicillium chrysogenum [6]; +200 μg/mL in Olympic Home paint, 21 days) was 5.0 ± 5.5. For the same compound, the “Average defacement rating ± standard deviation” value (Penicillium chrysogenum [6]; +200 μg/mL in Valspar QuikHide paint, 7 days) was 10.0 ± 0.0, the “Average defacement rating ± standard deviation” value (Penicillium chrysogenum [6]; +200 μg/mL in Valspar QuikHide paint, 14 days) was 6.8 ± 4.0 and the “Average defacement rating ± standard deviation” value (Penicillium chrysogenum [6]; +200 μg/mL in Valspar QuikHide paint, 21 days) was 5.0 ± 5.5. The “Average defacement rating ± standard deviation” value (Stachybotrys chartarum [7]; 7 days) was 0.7 ± 1.3, the “Average defacement rating ± standard deviation” value (Stachybotrys chartarum [7]; 14 days) was 0.0 ± 0.0 and the “Average defacement rating ± standard deviation” value (Stachybotrys chartarum [7]; 21 days) was 0.0 ± 0.0. The “Average defacement rating ± standard deviation” value (Alternaria alternata [8]; 7 days) was 2.3 ± 2.3, the “Average defacement rating ± standard deviation” value (Alternaria alternata [8]; 14 days) was 0.5 ± 1.8 and the “Average defacement rating ± standard deviation” value (Alternaria alternata [8]; 21 days) was 0.0 ± 0.0. The “Average defacement rating ± standard deviation” value (Penicillium chrysogenum [9]; 7 days) was 0.0 ± 0.0 (9), the “Average defacement rating ± standard deviation” value (Penicillium chrysogenum [9]; 14 days) was 0.0 ± 0.0 (9) and the “Average defacement rating ± standard deviation” value (Penicillium chrysogenum [9]; 21 days) was 0.0 ± 0.0 (9). For the same compound, the “Average defacement rating ± standard deviation” value (Stachybotrys chartarum [3]; 7 days) was 6.1 ± 3.3 (9), the “Average defacement rating ± standard deviation” value (Stachybotrys chartarum [3]; 14 days) was 4.4 ± 3.0 (9) and the “Average defacement rating ± standard deviation” value (Stachybotrys chartarum [3]; 21 days) was 3.9 ± 2.9 (9). For the same compound, the “Average defacement rating ± standard deviation” value (Alternaria alternata [10]; 7 days) was 2.1 ± 1.6 (6), the “Average defacement rating ± standard deviation” value (Alternaria alternata [10]; 14 days) was 1.0 ± 1.3 (6) and the “Average defacement rating ± standard deviation” value (Alternaria alternata [10]; 21 days) was 0.4 ± 0.6 (6).
With `N#Cc1ccc2c(c1)COB2O` [Compound B11, 1-hydroxy-1,3-dihydro-2,1-benzoxaborole-5-carbonitirile] the MIC (Penicillium purpurogenum) was 25 µg/mL (≈ 157 µM), the MIC (Penicillium chrysogenum [4]) was 100 µg/mL (≈ 629 µM) and the MIC [5] was 50 µg/mL (≈ 315 µM). For the same compound, the MIC (Penicillium corylophilum) was 100 µg/mL (≈ 629 µM), the MIC (Stachybotrys chartarum [1]) was 12.5 µg/mL (≈ 78.6 µM) and the MIC (Alternaria alternata [2]) was 100 µg/mL (≈ 629 µM).
